Test results: US12655116B2, “Substituted isophthalic acid diamides” (Bayer Aktiengesellschaft, priority 2020, dated 2026)

How the values were obtained:
ECHCG [1] = experiment: Pre-emergence herbicidal action against ECHCG; assay type: in vivo, Echinochloa crus-galli
Method in brief: (§1)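 Pre-emergence soil-surface spray of formulated compound (WP or EC; 600 to 800 l/ha; 0.2% wetting agent) over seeds sown in sandy loam. After 3 weeks under greenhouse conditions, damage is estimated visually in percent against untreated plants.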

MATIN [2] = experiment: Post-emergence herbicidal action against MATIN; assay type: in vivo, Matricaria inodora; conditions: dosage 20 g/ha
Method: (§2) Seeds of monocotyledonous and dicotyledonous weed and crop plants are laid out in sandy loam soil in wood-fiber pots, covered with soil and cultivated in a greenhouse under good growth conditions. 2 to 3 weeks after sowing, the test plants are treated at the one-leaf stage. The compounds of the invention, formulated in the form of wettable powders (WP) or as emulsion concentrates (EC), are then sprayed onto the green parts of the plants in the form of an aqueous suspension or emulsion at a water application rate equivalent to 600 to 800 l/ha, with addition of 0.2% wetting agent. After the test plants have been left to stand in the greenhouse under optimal growth conditions for about 3 weeks, the action of the preparations is assessed visually in comparison to untreated controls (herbicidal action in percent (%): 100% activity=the plants have died, 0% activity=like control plants). […] The tables below illustrate, in an illustrative manner, the post-emergence herbicidal action of the compounds of the invention, the herbicidal activity being stated in percent.

VIOTR [3] = experiment: Pre-emergence herbicidal action against VIOTR; assay type: in vivo, Viola tricolor
Method in brief: as §1

SETVI [4] = experiment: Pre-emergence herbicidal action against SETVI; assay type: in vivo, Setaria viridis
Method in brief: as §1

AVEFA = experiment: Pre-emergence herbicidal action against AVEFA; assay type: in vivo, Avena fatua; conditions: 80 g/ha, pre-emergence
Excerpt: (§3) Seeds of monocotyledonous and dicotyledonous weed plants and crop plants are laid out in sandy loam soil in wood-fiber pots and covered with soil. The compounds of the invention, formulated in the form of wettable powders (WP) or as emulsion concentrates (EC), are then applied to the surface of the covering soil in the form of an aqueous suspension or emulsion at a water application rate equivalent to 600 to 800 l/ha, with addition of 0.2% wetting agent. After the treatment, the pots are placed in a greenhouse and kept under good growth conditions for the trial plants. The damage to the test plants is scored visually after a test period of 3 weeks by comparison with untreated controls (herbicidal activity in percent (%): 100% activity=the plants have died, 0% activity=like control plants). […] The tables below illustrate, in an illustrative manner, the post-emergence herbicidal action of the compounds of the invention, the herbicidal activity being stated in percent.

AMARE [5] = experiment: Pre-emergence herbicidal action against AMARE; assay type: in vivo, Amaranthus retroflexus
Method in brief: as §1

SETVI [6] = experiment: Post-emergence herbicidal action against SETVI; assay type: in vivo, Setaria viridis; conditions: dosage 20 g/ha
Method in brief: (§4)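 Spray, one-leaf stage: WP or EC compound in water, 600–800 l/ha, 0.2% wetting agent. Plants held about 3 weeks in the greenhouse, then visually rated in percent of kill compared with untreated controls.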

ECHCG [7] = experiment: Post-emergence herbicidal action against ECHCG; assay type: in vivo, Echinochloa crus-galli
Method in brief: as §4

ALOMY [8] = experiment: Post-emergence herbicidal action against ALOMY; assay type: in vivo, Alopecurus myosuroides; conditions: dosage 20 g/ha, visual assessment about 3 weeks after treatment vs untreated controls
Method: as §2

ALOMY [9] = experiment: Pre-emergence herbicidal action against ALOMY; assay type: in vivo, Alopecurus myosuroides; conditions: 80 g/ha, pre-emergence, scored visually after 3 weeks vs untreated controls (100% = plants have died, 0% = like control plants)
Method in brief: as §1

PHBPU = experiment: Post-emergence herbicidal action against PHBPU; assay type: in vivo, Pharbitis purpurea
Method in brief: as §4

AMARE [10] = experiment: Post-emergence herbicidal action against AMARE; assay type: in vivo, Amaranthus retroflexus; conditions: 20 g/ha, visual assessment about 3 weeks after treatment, 100% = plants have died, 0% = like control plants
Method in brief: as §4

DIGSA [11] = experiment: Post-emergence herbicidal action against DIGSA; assay type: in vivo, Digitaria sanguinalis; conditions: for Post-emergence action against DIGSA: 20 g/ha
Method: as §2

ABUTH [12] = experiment: Pre-emergence herbicidal action against ABUTH; assay type: in vivo, Abutilon theophrasti; conditions: for Pre-emergence action against ABUTH (herbicidal activity): 80 g/ha, scored visually after 3 weeks vs untreated controls (100% = plants have died, 0% = like control plants); for Pre-emergence action against ABUTH (herbicidal activity in percent): dosage 20 g/ha, scored visually after 3 weeks vs untreated controls, 100% = plants have died, 0% = like control plants
Method in brief: as §1

MATIN [13] = experiment: Pre-emergence herbicidal action against MATIN; assay type: in vivo, Matricaria inodora
Method in brief: as §1

ABUTH [14] = experiment: Post-emergence herbicidal action against ABUTH; assay type: in vivo, Abutilon theophrasti; conditions: visual assessment about 3 weeks after treatment vs untreated controls
Method in brief: as §4

VIOTR [15] = experiment: Post-emergence herbicidal action against VIOTR; assay type: in vivo, Viola tricolor; conditions: 20 g/ha
Method: as §2

VERPE [16] = experiment: Post-emergence herbicidal action against VERPE; assay type: in vivo, Veronica persica; conditions: 20 g/ha
Method: as §2

VERPE [17] = experiment: Pre-emergence herbicidal action against VERPE; assay type: in vivo, Veronica persica; conditions: dosage 80 g/ha
Excerpt: as §3

DIGSA [18] = experiment: Pre-emergence herbicidal action against DIGSA; assay type: in vivo, Digitaria sanguinalis
Method in brief: as §1

[19] = 20 g/ha, scored visually after 3 weeks vs untreated controls, 100% = plants have died, 0% = like control plants
[20] = 80 g/ha, scored visually after 3 weeks vs untreated controls (100% = plants have died, 0% = like control plants)

| SMILES | Pre-emergence action against ECHCG in % (ECHCG [1]; 80 g/ha) | Post-emergence action against MATIN in % (MATIN [2]) | Pre-emergence action against VIOTR in % (VIOTR [3]; dosage 80 g/ha) | Pre-emergence action against SETVI in % (SETVI [4]; dosage 80 g/ha) | Pre-emergence action against AMARE in % (AMARE [5]; [19]) | Pre-emergence action against AMARE in % (AMARE [5]; [20]) | Post-emergence action against SETVI in % (SETVI [6]) | Post-emergence action against ECHCG in % (ECHCG [7]; dosage 20 g/ha) | Post-emergence action against ALOMY in % (ALOMY [8]) | Pre-emergence action against ALOMY (herbicidal activity) (ALOMY [9]) | Post-emergence action against PHBPU in % (PHBPU; dosage 20 g/ha) | Post-emergence action at 20 g/ha against AMARE in % (AMARE [10]) | Pre-emergence action against ABUTH (herbicidal activity) (ABUTH [12]) | Pre-emergence action against ABUTH (herbicidal activity in percent) (ABUTH [12]) | Pre-emergence action against MATIN in % (MATIN [13]; dosage 20 g/ha) | Pre-emergence action against MATIN in % (MATIN [13]; dosage 80 g/ha) | Post-emergence action against ABUTH in % (ABUTH [14]; dosage 20 g/ha) | Post-emergence action against VERPE in % (VERPE [16]) | Pre-emergence action against DIGSA in % (DIGSA [18]; dosage 80 g/ha) | also measured |
| --- | --- | --- | --- | --- | --- | --- | --- | --- | --- | --- | --- | --- | --- | --- | --- | --- | --- | --- | --- | --- |
| CCn1nnnc1NC(=O)c1ccc(C(F)(F)F)c(C(=O)NCC(F)(F)F)c1Br [Example 2-211] | 90% | 80% | 80% | 100% | 100% | 100% | 90% | 80% | 80% | 90% | 80% | 90% | 100% | 100% | 90% | 100% | 80% |  |  | Pre-emergence action against AVEFA in % (AVEFA): 80%; Post-emergence action against PHBPU in % (PHBPU; dosage 5 g/ha): 80%; Post-emergence action against DIGSA (DIGSA [11]): 80%; Post-emergence action against ABUTH in % (ABUTH [14]; dosage 5 g/ha): 80% |
| CCNC(=O)c1c(OC)ccc(C(=O)Nc2nnnn2CC)c1Cl [Example 2-353] |  | 80% | 100% |  | 100% | 100% |  |  |  | 90% | 80% | 100% | 100% |  | 90% | 100% | 100% | 100% |  | Post-emergence action against VIOTR in % (VIOTR [15]): 80%; Pre-emergence action against VIOTR in % (VIOTR [3]; dosage 20 g/ha): 90%; Post-emergence action against PHBPU in % (PHBPU; dosage 5 g/ha): 80%; Post-emergence action against ABUTH in % (ABUTH [14]; dosage 5 g/ha): 90% |
| CN(C)C(=O)CNC(=O)c1c(C(F)F)ccc(C(=O)Nc2nnnn2C)c1Cl [Example 1-160] |  |  | 80% |  | 100% | 100% |  |  | 80% |  |  | 100% | 80% |  |  | 80% |  |  |  |  |
| CCn1nnnc1NC(=O)c1ccc(C(F)(F)F)c(C(=O)NCC(=O)N(C)C)c1Cl [Example 2-142] |  |  | 100% |  |  | 100% |  |  | 80% |  |  | 100% |  |  | 80% | 100% |  |  |  |  |
| CN(C)C(=O)CNC(=O)c1c(C(F)(F)F)ccc(C(=O)Nc2nnnn2C)c1Cl [Example 1-142] |  |  | 90% |  |  | 100% |  |  | 90% |  |  | 90% |  |  |  | 90% |  |  |  |  |
| CCn1nnnc1NC(=O)c1ccc(C(F)F)c(C(=O)NCC(=O)N(C)C)c1Cl [Example 2-160] |  |  | 100% |  | 100% | 100% |  |  | 80% |  |  | 100% | 90% |  |  | 90% | 90% |  |  | Pre-emergence action against VERPE in % (VERPE [17]): 80% |
| CCn1nnnc1NC(=O)c1ccc(C(F)(F)F)c(C(=O)NCC#N)c1C [Example 2-36] |  |  | 100% |  | 100% | 100% |  |  | 90% |  |  | 90% | 100% | 90% |  | 90% |  |  | 90% |  |
| Cc1nnc(NC(=O)c2ccc(C(F)(F)F)c(C(=O)NC(C)C3CC3)c2Cl)o1 (stereo not shown) [Example 6-254] | 100% | 80% | 90% | 80% | 100% | 100% | 80% | 90% |  | 90% | 80% | 100% | 100% | 100% | 80% | 100% | 80% | 80% | 100% | Pre-emergence action against ECHCG in % (ECHCG [1]; 20 g/ha): 90%; Pre-emergence action against AVEFA in % (AVEFA): 90%; Pre-emergence action against VERPE in % (VERPE [17]): 100%; Post-emergence action against DIGSA in % (DIGSA [11]; 5 g/ha): 80%; Post-emergence action against DIGSA (DIGSA [11]): 90%; Pre-emergence action against DIGSA in % (DIGSA [18]; dosage 20 g/ha): 90% |
| Cc1c(C(=O)Nc2nnnn2C)ccc(C(F)(F)F)c1C(=O)NCC1CCCO1 (stereo not shown) [Example 1-37] | 80% |  | 100% | 100% | 100% | 100% |  | 80% |  | 100% | 80% |  |  |  |  | 90% |  | 80% | 100% | Post-emergence action against VIOTR in % (VIOTR [15]): 80%; Pre-emergence action against SETVI in % (SETVI [4]; dosage 20 g/ha): 90%; Post-emergence action against ECHCG in % (ECHCG [7]; dosage 5 g/ha): 80%; Pre-emergence action against DIGSA in % (DIGSA [18]; dosage 20 g/ha): 80% |
| Cc1nnc(NC(=O)c2ccc(C(F)(F)F)c(C(=O)NCC3CC3)c2Br)o1 [Example 6-161] | 100% |  | 80% | 100% | 100% | 100% | 90% | 90% | 90% | 90% | 80% | 100% | 100% | 100% | 100% | 100% | 90% |  |  | Pre-emergence action against ECHCG in % (ECHCG [1]; 20 g/ha): 80%; Post-emergence action against ECHCG in % (ECHCG [7]; dosage 5 g/ha): 90% |
